{"source": "patent US20260117192A1", "about": "“METHODS OF PRODUCING A TUMOR AVATAR” (ARIEL SCIENTIFIC INNOVATIONS LTD., priority 2023, published 2026)", "key": {"[1]": {"tested_on": "human pancreas tumor avatar", "test": "Celltiter-Glo viability of drug treated pancreas tumor avatars", "type": "cell-based", "details": "pancreas tumor avatars (Huvec, TASCs, Org), cultured 3 days, treated 72 hours", "protocol": "(§1) FIGS. 10A-10B: (10A) Representative immunofluorescence and brightfield images of human pancreas tumor avatar composed of Huvec endothelial cells, Org and TASCs mix at a 1:1:1, 1:4:1 or 4:1:1 ratio, respectively cultivated in a Matrigel (5%) and fibronectin scaffold (10 ng/ml), during 6 days. Org were stained with Cell Vue Claret far red fluorochrome (purple cells). Cell viability was assessed by Calcein (green)/PI (red) staining and images were acquired with Operetta Imager at 5× magnification. (10B) Line graphs showing relative light unit percentage (RLU %) of everolimus or FOLFOX treated pancreas tumor avatars and organoids as compared with their respective vehicle controls, after the same day of drug or vehicle exposure, (RLU %=RLUtreatment*100)/RLUveh). Tumor avatars were cultured for 3 days, treated with the specified drugs for other 72 hours and viability determined by Celltiter-Glo assay.\n(§2) Next, the inventors aimed to examine a tumor avatar model, composed of pancreas tumor epithelial cells, TASCs and Huvec cells, cultured in the presence of a Matrigel and fibronectin scaffold. Huvec, TASCs and […] organoid-derived tumor epithelial cells clusters (5-15 cells/cluster) were seeded at different ratios (1:1:1, 1:4:4 or 4:1:4 respectively) and cultured for 6 days. Tumor cells, labelled with CellVue Claret far red fluorochrome localized in the interior of the tumor avatar."}, "pancreas organoids": {"tested_on": "pancreas organoids", "test": "Celltiter-Glo viability of drug treated pancreas organoids", "type": "cell-based, human", "details": "72 hours treatment", "protocol": "as §1, §2"}, "gastric cancer organoids": {"tested_on": "gastric cancer organoids", "test": "Drug cytotoxicity, CellTiter-Glo cell viability and bright field images, organoids", "type": "cell-based, human", "details": "for effect on viability: targeted drugs, 72 hours (dasatinib 0.180 μM, gefitinib 3 μM, imatinib 4 μM, capmatinib 8 μM); for cell death: targeted drugs at concentrations found in peripheral blood (crizotinib 1 μM, osimertinib 0.8 μM, afatinib 0.150 μM)", "protocol": "(§3) Organoids and stroma cells isolation and culture: Human gastric cancer along with surrounding normal tissue were obtained from a consenting patient undergoing surgery at Ichilov Hospital, with approval from the Institutional Review Board. The samples were transported in cold hypothermosol medium and processed within 24 hours post-surgery. Upon acquisition, the tumor tissue was divided into three equal parts for various analyses. One third was snap-frozen for subsequent DNA isolation, another third was fixed in 4% paraformaldehyde for histological examination, and the remaining portion was prepared for cell culture. The tissue underwent digestion using Collagenase I (1 mg/ml), Liberase, and DNAse (10 ug/ml), followed by separation into organoids and stroma cell cultures. Organoids were cultured as previously described hereinbelow, with medium replacement twice weekly and passaging via mechanical and enzymatic dissociation using TrypLE enzyme. Stroma cells were cultured in mesenchymal stem cell medium (MSCM) on pre-coated Matrigel (20%) and fibronectin (2 μg/cm2) 4-well dish plates. Upon reaching 80% confluency the cells were subculturing using accutase to 6 well plate and then to 25 cm flask. From passage 3 onwards, cells were sub-cultured in 25 cm flask and then in 75 cm flasks using MSCM, endothelial cell medium (ECM), or fibroblast medium (FM-2) for subsequent passages. Bright field images were obtained using Operetta High Content Screening System or Leica microscope.\n(§4) Cell viability assay: To assess co-culture growth rates and the cytotoxic effects of various drugs, a luminescent cell viability assay was conducted using the CellTiter-Glo kit from Promega following the manufacturer's guidelines. For the drug cytotoxicity assay, co-cultures or organoids were seeded in 384-well plates and allowed to organize for 48 hours. […] The chosen drug concentrations were based on their higher plasma concentration values. Following treatment, each well containing co-cultures or organoids was lysed using CellTiter-Glo reagents, thoroughly mixed, and incubated for 30 minutes, after which luminescence was measured."}, "[2]": {"tested_on": "ECM:FM2:ORG co-cultures (TECs:TASCs:Org)", "test": "Drug cytotoxicity, CellTiter-Glo cell viability and bright field images, organoid-stroma cell co-cultures", "type": "cell-based, human", "details": "for effect on viability: co-culture, targeted drugs, 72 hours (afatinib 0.150 μM, osimertinib 0.8 μM, dasatinib 0.180 μM, gefitinib 3 μM, imatinib 4 μM, capmatinib 8 μM)", "protocol": "Organoid-stroma cells co-culture: Initially, organoids were mechanically dissociated into smaller fragments through pipetting, followed by enzymatic digestion into single cells using dispase II at 37° C. for 20 minutes. Concurrently, stroma cells cultured in FM-2, ECM, and MSCM, as well as Huvec cells cultured in ECM, were harvested at 80% confluency in the flask and dissociated using accutase. In certain experiments, after cells dissociation, each cell population was stained with a vital dye before their co-culture. Cells cultured in ECM and Huvec cell lines were stained blue using the CellTrace Violet Dye Proliferation Kit. […] Imaging was performed at 10× magnification using an Olympus Confocal Microscope. Subsequently, dissociated cells were mixed in 35 ul of co-culture medium, at ratios of 1:1:1, 1:4:1, 4:1:1 and 1:1:4 of Huvec or cells cultured in ECM, cells cultured in FM2 and organoids respectively. Co-cultures composed of ECM:organoids (ORG), FM2:ORG, and Huvec:ORG were also created at 1:1, 1:4, and 4:1 ratios, respectively. Each mix, containing 4000 cells, was then co-cultured in 384 wells low repellent plates, with DMEM/F12 medium supplemented with 10 mM HEPES, abam, 2 mM glutamax, non-essential amino acids, sodium pyruvate, 500 ng ml-1 R-spondin, 100 ng ml-1 noggin, 100 ng ml-1 Wnt3A, 10 nM gastrin, Prostaglandin E2, 100 ng ml-1 IGF1, 10 ng·ml-1 FGF2, 10 ng·ml-1 FGF10, 50 ng·ml-1 EGF, B27, 0.5 μM A 83-01, 4 mM nicotinamide, 10 μM Y-27632, 1 μg ml-1 hydrocortisone, 50 μg ml-1 ascorbic acid, 5 ng ml-1 VEGF and 100 ng ml-1 IL-6, 4 μg ml-1 heparin, and 5% fetal calf serum in 10 ng·ml-1 and fibronectin and 5% Matrigel as scaffold and incubated in 5% CO2 at 37° C. for different intervals of time.\nas §4"}, "[3]": {"tested_on": "patient 1 (gastrointestinal sarcoma) and patient 2 (gastric adenocarcinoma)", "test": "Administration to the patients", "type": "in vivo, human", "details": "both patients"}, "[4]": {"tested_on": "human gastric tumor avatars in the presence of lymphocytes", "test": "Cell-Titer Glo viability of gastric tumor avatars with peripheral blood lymphocytes", "type": "cell-based", "details": "avatars of patient 1 and patient 2 with autologous lymphocytes, various concentrations, 72 hours", "text": "FIGS. 12A-12F: (12A) Representative brightfield images of human gastric tumor avatars from a patient with gastrointestinal sarcoma (patient 1) and a second patient (patient 2) with gastric adenocarcinoma, composed of organoids and stroma cells. Cells were dissociated from gastric tissue and cultured in a Matrigel dome in an adherent plate in tumor avatar medium from day 0. After 7 days of culture, organoids remain in the dome and stroma cells and metastatic tumor cells invaded the tissue culture plate outside the dome. […] (12B) Representative brightfield images of defrosted human gastric tumor avatars from defrosted tumor avatars. The tumor avatars were sub-cultured in a Matrigel dome using an adherent plate in the presence of tumor avatar medium from day 3 to day 13. […] (12C-12D). Representative brightfield images of human gastric tumor avatars from a patient with gastrointestinal sarcoma (patient 1) and a second patient (patient 2) with gastric adenocarcinoma, composed of organoids and stroma cells. […] Cell viability was detected after 72 hours of treatment using Cell-Titer Glo assay.\nLymphocytes were isolated from the peripheral blood of patient 1 and patient 2. […] Pembrolizumab was added at various concentrations to the tumor avatars and cell viability was monitored for 72 hours after treatment using the Cell-Titer Glo assay."}, "stroma cell monocultures": {"tested_on": "stroma cell monocultures", "test": "Drug cytotoxicity, CellTiter-Glo cell viability, stroma cell monocultures", "type": "cell-based, human", "details": "stroma cells monocultures, targeted drugs, 72 hours (dasatinib 0.180 μM, imatinib 4 μM, capmatinib 8 μM)", "protocol": "as §3, with “Stroma cells were cultured in mesenchymal stem cell medium (MSCM) on pre-coated Matrigel (20%) and fibronectin (2 μg/cm2) 4-well dish plates. Upon reaching 80% confluency the cells were subculturing using accutase to 6 well plate and then to 25 cm flask. From passage 3 onwards, cells were sub-cultured in 25 cm flask and then in 75 cm flasks using MSCM, endothelial cell medium (ECM), or fibroblast medium (FM-2) for subsequent passages. Bright field images were obtained using Operetta High Content Screening System or Leica microscope.” left out\n(§5) Cell viability assay: To assess co-culture growth rates and the cytotoxic effects of various drugs, a luminescent cell viability assay was conducted using the CellTiter-Glo kit from Promega following the manufacturer's guidelines. […] Following treatment, each well containing co-cultures or organoids was lysed using CellTiter-Glo reagents, thoroughly mixed, and incubated for 30 minutes, after which luminescence was measured."}, "[5]": {"tested_on": "HUVEC:FM-2:ORG co-cultures", "test": "Drug cytotoxicity, CellTiter-Glo cell viability, co-cultures containing Huvec cells", "type": "cell-based, human", "details": "paclitaxel 5 μM, 72 hours", "protocol": "Organoid-stroma cells co-culture: Initially, organoids were mechanically dissociated into smaller fragments through pipetting, followed by enzymatic digestion into single cells using dispase II at 37° C. for 20 minutes. Concurrently, stroma cells cultured in FM-2, ECM, and MSCM, as well as Huvec cells cultured in ECM, were harvested at 80% confluency in the flask and dissociated using accutase. In certain experiments, after cells dissociation, each cell population was stained with a vital dye before their co-culture. Cells cultured in ECM and Huvec cell lines were stained blue using the CellTrace Violet Dye Proliferation Kit. […] Imaging was performed at 10× magnification using an Olympus Confocal Microscope. Subsequently, dissociated cells were mixed in 35 ul of co-culture medium, at ratios of 1:1:1, 1:4:1, 4:1:1 and 1:1:4 of Huvec or cells cultured in ECM, cells cultured in FM2 and organoids respectively. […]\nas §5"}}, "data": [{"molecule": "CO[C@H]1C[C@@H]2CC[C@@H](C)[C@@](O)(O2)C(=O)C(=O)N2CCCC[C@H]2C(=O)O[C@H]([C@H](C)C[C@@H]2CC[C@@H](OCCO)[C@H](OC)C2)CC(=O)[C@H](C)/C=C(\\C)[C@@H](O)[C@@H](OC)C(=O)[C@H](C)C[C@H](C)/C=C/C=C/C=C/1C", "note": "[everolimus]", "values": [{"measurement": "effect of treatment on viability (RLU %)", "setting": "[1]", "value": "neither the organoids nor the tumor avatar models were affected"}, {"measurement": "effect of treatment on viability (RLU %)", "setting": "pancreas organoids", "value": "neither the organoids nor the tumor avatar models were affected"}]}, {"molecule": "COc1cc2ncnc(Nc3ccc(F)c(Cl)c3)c2cc1OCCCN1CCOCC1", "note": "[gefitinib]", "values": [{"measurement": "effect on viability", "setting": "gastric cancer organoids; organoids", "value": "neither the organoids nor the co-culture showed significant response"}, {"measurement": "effect on viability", "setting": "[2]", "value": "neither the organoids nor the co-culture showed significant response"}]}, {"molecule": "CN(C)C/C=C/C(=O)Nc1cc2c(Nc3ccc(F)c(Cl)c3)ncnc2cc1O[C@H]1CCOC1", "note": "[afatinib]", "values": [{"measurement": "cell death", "setting": "gastric cancer organoids; organoids, 72 hours", "value": "approximately 50%"}]}, {"molecule": "C[C@@H](Oc1cc(-c2cnn(C3CCNCC3)c2)cnc1N)c1c(Cl)ccc(F)c1Cl", "note": "[crizotinib]", "values": [{"measurement": "cell death", "setting": "gastric cancer organoids; organoids, 72 hours", "value": "more than 50%"}, {"measurement": "cell death", "setting": "[2]; stroma cells-organoid co-cultures, crizotinib 1 μM, 72 hours", "value": "more than 50%"}]}, {"molecule": "C=CC(=O)Nc1cc(Nc2nccc(-c3cn(C)c4ccccc34)n2)c(OC)cc1N(C)CCN(C)C", "note": "[osimertinib]", "values": [{"measurement": "cell death", "setting": "gastric cancer organoids; organoids, 72 hours", "value": "approximately 50%"}, {"measurement": "effect on viability", "setting": "[2]", "value": "resistant"}]}, {"molecule": "Pembrolizumab: Pembrolizumab immunotherapy", "values": [{"measurement": "patient response", "setting": "[3]", "value": "both respond"}, {"measurement": "effectiveness (cell viability)", "setting": "[4]", "value": "effective"}]}, {"molecule": "CNC(=O)c1ccc(-c2cnc3ncc(Cc4ccc5ncccc5c4)n3n2)cc1F", "note": "[capmatinib]", "values": [{"measurement": "effect on viability", "setting": "gastric cancer organoids; organoids", "value": "neither the organoids nor the co-culture showed significant response"}, {"measurement": "effect on viability", "setting": "[2]", "value": "neither the organoids nor the co-culture showed significant response"}, {"measurement": "effect on viability", "setting": "stroma cell monocultures", "value": "decreased viability"}]}, {"molecule": "Cc1ccc(NC(=O)c2ccc(CN3CCN(C)CC3)cc2)cc1Nc1nccc(-c2cccnc2)n1", "note": "[imatinib]", "values": [{"measurement": "effect on viability", "setting": "gastric cancer organoids; organoids", "value": "neither the organoids nor the co-culture showed significant response"}, {"measurement": "effect on viability", "setting": "[2]", "value": "neither the organoids nor the co-culture showed significant response"}, {"measurement": "effect on viability", "setting": "stroma cell monocultures", "value": "decreased viability"}]}, {"molecule": "CC(=O)O[C@H]1C(=O)[C@@]2(C)[C@H]([C@H](OC(=O)c3ccccc3)[C@]3(O)C[C@H](OC(=O)[C@H](O)[C@@H](NC(=O)c4ccccc4)c4ccccc4)C(C)=C1C3(C)C)[C@]1(OC(C)=O)CO[C@@H]1C[C@@H]2O", "note": "[paclitaxel]", "values": [{"measurement": "cytotoxicity at 5 µM", "setting": "gastric cancer organoids; Homo sapiens, 72 h, read-out: decrease in cell viability", "value": 53, "unit": "%"}, {"measurement": "size and integrity in bright field images", "setting": "gastric cancer organoids; organoids, paclitaxel 5 μM, 72 hours", "value": "reduced the size and affected the integrity"}, {"measurement": "cell death", "setting": "[2]; TECs:TASCs:Org ratio 1:1:4, paclitaxel 5 μM, 72 hours", "value": 22, "unit": "%"}, {"measurement": "cell death", "setting": "[2]; TECs:TASCs:Org ratios 1:1:1, 4:1:1 and 1:4:1, paclitaxel 5 μM, 72 hours", "value": "approximately 40%"}, {"measurement": "size and integrity in bright field images", "setting": "[2]; co-cultures, paclitaxel 5 μM, 72 hours", "value": "reduced the size and affected the integrity"}, {"measurement": "cell death", "setting": "[5]", "value": "approximately 10%"}]}]}
